Measurements published in patent publication US10758551B2, “Methods and compositions for treating pancreatitis” (BAYLOR RESEARCH INSTITUTE, priority 2015, dated 2020).
“Also recorded” adds a separate entry of the source.

How the values were obtained:
[1] = tested on: cerulein-induced pancreatitis; test: Standard chronic pancreatitis model: cerulein 7 hourly IP injections once per week for 4 weeks, WA one hour prior; type: in vivo, C57BL/6 mice
Protocol: (§1) C57BL/6 mice were injected with 7 hourly IP injections of cerulein at […] once per week for 4 weeks in a standard model for chronic pancreatitis or 6 hourly IP injections of cerulein at […] twice per week for 8 weeks in a stringent model for chronic pancreatitis. WA was administered one hour prior to cerulein beginning in week 1 in the standard model and beginning in week 5 in the stringent model of chronic pancreatits. Incidence of pancreatitis was confirmed by histopathological analysis of pancreas tissue, serum amylase levels, and neutrophil infiltration into pancreatic tissue. Cell proliferation was assessed by Ki67 staining. Pancreatic stone protein REG1α was analyzed by immunohistochemical staining. ImageJ software was used to quantify the area of positively stained cells.
(§2) Chronic pancreatitis (CP) model: Animals were subjected to repeated episodes of acute pancreatitis by supramaximal dose (50 ug/kg) of cerulein administration. Standard Chronic pancreatitis: Mice were fasted overnight prior cerulein injection with ad-libitum supply of water. CP was induced when cerulein was injected i.p. (50 ug/kg) every hour for a total of 7 injection, this injection was repeated once a week for 4 weeks. Control mice were injected with saline as sham treatment. Another group of mice received WA (1.25 mg/kg) 1 hr before the first cerulein injection every week (n=6 mice/group). Mice were then sacrificed and blood and tissue were processed as previously mentioned. Stringent chronic pancreatitis: Mice were fasted overnight prior cerulein injection with ad-libitum supply of water. CP was induced when cerulein was injected i.p. (50 ug/kg) every hour for a total of 6 injection, this injection was repeated twice a week for 8 weeks. WA (0.625 mg/kg) was injected 1 hr prior to first cerulein injection but administration was initiated at week 5 and continued till the end of the experiment. Mice were then sacrificed and tissue was harvested as previously mentioned.
Amylase activity assay: Serum samples obtained from mice after treatment were aliquoted and stored at −80 C until further analysis. Serum was analyzed for amylase activity as per the manufacturer's protocol.
(§3) Histology and Immunohistochemistry: Pancreas tissue was placed in 10% formalin immediately after harvesting and fixed for at least 48 hrs at 4° C. before processing. Tissue samples were paraffin embedded and 5 um sections were made and mounted on slides for staining. Hematoxylin and Eosin (H&E) staining was performed for histopathological evaluation. Sirius Red Staining was performed as per manufacturer's protocol on the sections to evaluate fibrotic change in the tissue section. To perform immunohistochemical staining, the sections were deparaffinized in xylene and rehydrated using ethanol. The slides were incubated in a citrate buffer of pH 6 with at 97° C. for 20 minutes. Following the antigen retrieval process, the slides were carefully washed 3 times for 5 minutes in Tris-buffered saline (TBS) containing 0.025% Triton X-100. The slides were blocked in 1% bovine serum albumin (BSA) in TBS for 2 hours at room temperature to block non-specific binding of the antibodies. Then the slides were incubated overnight with primary antibodies which were diluted in TBS with 1% BSA. The following day, the slides were gently rinsed 3 times for 5 minutes in TBS 0.025% Triton X-100. TRITC or FITC labelled secondary antibodies from Invitrogen were diluted in TBS with 1% BSA. The slides were counterstained with DAPI and mounted for microscopic analysis. ImageJ software was used to perform semi-quantitative analysis of the staining.
(§4) qRT-PCR: Pancreas tissue samples were stored in RNAlater at −80° C. until extraction procedure. Total RNA from the pancreas tissue were extracted using TRIzol reagent. Tissue was homogenized and debris was removed by centrifugation. Chloroform was added to separate the RNA from other biomolecules, and further precipitated using iso-propanol. […]

[2] = tested on: cerulein-induced pancreatitis; test: Stringent chronic pancreatitis model: cerulein 6 hourly IP injections twice per week for 8 weeks, WA from week 5; type: in vivo, C57BL/6 mice; conditions: for Histopathology (H&E, Sirius red): pancreas damage, acinar cell atrophy, mononuclear cell infiltration, fibrosis: stringent model, cerulein (50 ug/kg) + Withaferin vs cerulein only, FIGS. 3C, 3F, six animals per group
Protocol: as §1, §2, §3
as §4, with “iso-propanol. RNA pellet was washed with ethanol and quantified using nanodrop 2000. cDNA synthesis was performed using high capacity cDNA reverse transcription kit as per manufacturer's protocol.” for “iso-propanol.”

[3] = tested on: cerulein induced acute pancreatitis; test: Acute pancreatitis model: cerulein 7 hourly IP injections, WA one hour prior; type: in vivo, C57BL/6 mice; conditions: WA 1.25 mg/kg, n=5/group
Protocol: Acute pancreatitis (AP) model: Animals were fasted overnight prior to induction of pancreatitis by cerulein, water was given ad-libitum. Mice were injected with Cerulein (50 ug/kg intraperitoneally) or saline every hour for a total of 7 injections and were sacrificed 1 hr after the last injection. WA (1.25 mg/kg) was administered 1 hr before first cerulein injection (n=5 mice/group). […] Pancreas was divided for immunohistochemistry, RNA extraction, protein extraction, immune cell infiltration analysis. Amylase activity assay: Serum samples obtained from mice after treatment were aliquoted and stored at −80 C until further analysis. Serum was analyzed for amylase activity as per the manufacturer's protocol. Immune cell infiltration assay: Cell suspension was prepared from the pancreas tissue after digestion with collagenase (2 mg/mL) at 37° C. for 15 mins. Tissue was further mechanically digested by pipetting several times, the suspension was then washed and filtered to obtain only the single cell fraction. Cell suspension obtained was used for flow cytometric analysis of infiltrated immune cells. 1×10^6 pancreatic cells were labelled with anti-CD45, anti-CD11b, anti-CD14, and anti-Ly6g antibodies. Stained cells were detected using FACScanto II and data were analyzed using FlowJo software. To model acute pancreatitis, C57BL/6 mice were injected with 7 hourly IP injections of cerulein at 50 μg/kg. WA (1.25 mg/kg) was administered one hour prior to cerulein. […] Inflammatory cell infiltration was increased in cerulein-treated mice (FIGS. 18B, 18E, and 18H) compared to controls (FIGS. 18A, 18D, and 18G), but were reduced in cerulein and WA-treated mice (FIGS. 18C, 18F, and 18I) compared to cerulein-treated mice.

[4] = tested on: NF-κB p65; test: NF-κB p65 immunohistochemical staining and protein blot of pancreas of cerulein treated mice; type: in vivo, mouse; conditions: WA + cerulein vs cerulein treated mice
Protocol: as §3, with “The slides were counterstained with DAPI and mounted for microscopic analysis.” left out

[5] = tested on: cerulein-induced pancreatitis; test: Standard chronic pancreatitis model: cerulein 7 hourly IP injections once per week for 4 weeks, WA one hour prior; type: in vivo, C57BL/6 mice; conditions: WA (1 mg/kg) without cerulein; FIG. 2B

CC1=C(CO)C(=O)O[C@@H]([C@@H](C)[C@H]2CC[C@H]3[C@@H]4C[C@H]5O[C@]56[C@@H](O)C=CC(=O)[C@]6(C)[C@H]4CC[C@]23C)C1 [WA, (4β,5β,6β,22R)-5,6-Epoxy-4,22,27-trihydroxy-1-oxoergosta-2,24-dien-26-oic acid 6-lactone]
Ki67+ area in pancreas (ImageJ, semi-quantitative) ([1]; Standard CP model, FIG. 9A, n=5/group): significantly lower Ki67+ area
Histopathology (H&E): acinar cell atrophy, mononuclear cell infiltration, severity of chronic pancreatitis ([1]; WA + cerulein (50 ug/kg) vs cerulein only, FIG. 2D, six animals per group): significantly reduced acinar cell atrophy and infiltration of mononuclear cells; also recorded: significantly reduced severity of chronic pancreatitis
Serum amylase levels ([1]; WA + cerulein treated mice, cerulein only 952.8±228.8, p=0.045, FIG. 4): 696.3 ± 98.6 nmol/min/mL
Neutrophils migrated into pancreas ([1]; WA treated mice, cerulein only 3,742±1,188, p=0.03, FIGS. 7F, 7G, standard or stringent CP model not stated): 719±276 cells per objective field at a magnification of ×200
REG1α immunohistochemical staining of pancreas ([1]; WA treatment, cerulein only 3,779±448, p=0.003, brought to control levels, model not stated): 544±43
Ki67+ cells in the pancreas ([1]; WA+cerulein, cerulein only 20.0±16.0, FIG. 8, 9A-B (percentage of Ki67+ cells, ImageJ), model not stated): 3.8±2.9
Ly6g+ granulocyte infiltration of pancreas (immunohistochemical staining) ([1]; cerulein + WA vs cerulein, FIG. 7F, n=5/group, model not stated): significantly reduced inflammatory cell infiltration
Serum amylase level compared to cerulein treated mice ([1]; serum at week 3 and week 4, one hour after last injection, FIG. 4, n=6/group): significantly lower serum amylase level
Inflammasome gene expression in pancreas (qRT-PCR) ([1]; standard CP model, HMGB1, Pycard, NLRP3, IL-18, IL-1b, FIG. 13, n=4/group): decreased; also recorded: significantly reduced inflammasome related genes
Pro-inflammatory and pro-apoptotic gene expression in pancreas (qRT-PCR) ([1]; standard CP model, IL-6, TNFα, Nos2, Casp3, Casp7, Bax, FIG. 15, n=4/group): decreased; also recorded: significantly reduced most of these gene signals
ER stress gene expression in pancreas (qRT-PCR) ([1]; standard CP model, Perk, Atf6, Ern1, Eif2a, Atf4, xbp1, Chop, FIG. 11, n=4/group): decreased; also recorded: significantly reduced ER stress gene signals
IL-6 in pancreas tissue lysate (Luminex) ([1]; standard chronic pancreatitis, FIG. 5A, n=4/group): effectively blocked production
MCP-1 in pancreas tissue lysate (Luminex) ([1]; standard chronic pancreatitis, FIG. 5B, n=4/group): effectively blocked production
Ki67+ area in pancreas (ImageJ, semi-quantitative) ([2]; Stringent CP Model, FIG. 9B, n=5/group): significantly lower Ki67+ area
Inflammasome gene expression in pancreas (qRT-PCR) ([2]; stringent CP model, HMGB1, NLRP3, IL-1b, FIG. 14, n=4/group): decreased; also recorded: significantly reduced inflammasome related genes
Pro-inflammatory and pro-apoptotic gene expression in pancreas (qRT-PCR) ([2]; stringent CP model, IL-6, TNFα, Nos2, Bax, FIG. 16, n=4/group): decreased; also recorded: significantly reduced most of these gene signals
ER stress gene expression in pancreas (qRT-PCR) ([2]; stringent CP model, Perk, Ern1, Atf6, Chop, xbp1, eif2a, Atf4, FIG. 12, n=4/group): decreased; also recorded: significantly reduced ER stress gene signals
IL-6 in pancreas tissue lysate (Luminex) ([2]; stringent chronic pancreatitis, FIG. 6A, n=4/group): effectively blocked production
MCP-1 in pancreas tissue lysate (Luminex) ([2]; stringent chronic pancreatitis, FIG. 6B, n=4/group): effectively blocked production
Histopathology (H&E, Sirius red): pancreas damage, acinar cell atrophy, mononuclear cell infiltration, fibrosis [2]: significantly reduced acinar cell atrophy and infiltration of mononuclear cells
Histopathology (H&E, Sirius red): pancreas damage, acinar cell atrophy, mononuclear cell infiltration, fibrosis ([2]; listed as Withaferin): significantly reduced pancreas damage and fibrosis
Inflammatory cell infiltration into pancreas (flow cytometry) ([3]; CD45+CD11b+ myeloid cells, CD45+Ly6g+ granulocytes, CD45+CD14+ monocytes, FIG. 18): reduced percentage of infiltrating cells
Leucocyte (CD45+) infiltration into pancreas (flow cytometry) ([3]; FIG. 19G-J): reduced percentage of infiltrating cells
Serum amylase compared to cerulein treated mice ([3]; serum one hour after last cerulein injection, FIG. 17): significantly decreased; also recorded: significantly reduced serum amylase
NF-κB p65 translocation into the nucleus (immunohistochemical staining of pancreatic tissue) ([4]; FIG. 10C): significantly prevented NF-κB translocation into the nucleus
NF-κB P65 protein expression in pancreatic lysate (protein blot) ([4]; FIG. 10D): significantly inhibited overexpression
Histopathology (H&E) of pancreas, WA alone [5]: normal phenotype
